The source of these data is ChEMBL document CHEMBL1944614, “A scaffold hopping approach to identify novel monoamine oxidase B inhibitors” (Bioorg Med Chem Lett, 2012).

For series [1], the target named is T1, Amine oxidase [flavin-containing] A (Homo sapiens, UniProt P21397).
T1 sequence (P21397 whole entry): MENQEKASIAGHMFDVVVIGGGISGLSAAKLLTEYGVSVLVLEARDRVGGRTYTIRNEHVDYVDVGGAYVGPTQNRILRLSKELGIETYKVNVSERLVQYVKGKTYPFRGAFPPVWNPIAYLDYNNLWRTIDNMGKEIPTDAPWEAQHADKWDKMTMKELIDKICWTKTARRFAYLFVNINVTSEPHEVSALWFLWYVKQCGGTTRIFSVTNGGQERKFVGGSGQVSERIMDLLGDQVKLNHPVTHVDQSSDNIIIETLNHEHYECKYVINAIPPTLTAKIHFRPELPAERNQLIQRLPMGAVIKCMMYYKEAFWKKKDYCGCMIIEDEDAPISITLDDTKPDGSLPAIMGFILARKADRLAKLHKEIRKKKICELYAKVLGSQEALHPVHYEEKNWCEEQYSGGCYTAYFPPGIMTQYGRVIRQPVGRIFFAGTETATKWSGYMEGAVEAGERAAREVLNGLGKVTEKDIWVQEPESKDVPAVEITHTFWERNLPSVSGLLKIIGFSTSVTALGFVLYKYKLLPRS
The experiment in a line: Inhibition of human recombinant MAOA using kynuramine as substrate by fluorimetry.

Series [2] deals with T2, Amine oxidase [flavin-containing] B (Homo sapiens, UniProt P27338).
T2 sequence (P27338 whole entry): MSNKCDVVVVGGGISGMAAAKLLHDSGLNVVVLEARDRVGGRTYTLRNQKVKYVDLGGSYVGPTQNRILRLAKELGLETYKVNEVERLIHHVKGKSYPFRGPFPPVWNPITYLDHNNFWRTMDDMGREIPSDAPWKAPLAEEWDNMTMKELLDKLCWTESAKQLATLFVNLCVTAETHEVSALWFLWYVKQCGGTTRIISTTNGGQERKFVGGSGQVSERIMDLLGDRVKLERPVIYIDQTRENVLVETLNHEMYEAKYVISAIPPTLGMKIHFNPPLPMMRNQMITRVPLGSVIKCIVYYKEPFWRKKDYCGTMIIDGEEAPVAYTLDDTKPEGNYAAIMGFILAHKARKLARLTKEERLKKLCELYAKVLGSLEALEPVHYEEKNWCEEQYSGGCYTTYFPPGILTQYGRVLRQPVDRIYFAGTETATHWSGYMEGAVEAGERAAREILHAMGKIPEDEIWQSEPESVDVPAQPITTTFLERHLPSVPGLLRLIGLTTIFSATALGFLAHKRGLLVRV
The experiment in a line: Inhibition of human recombinant MAOB using kynuramine as substrate by fluorimetry.

Series [3] has as its target T2, Amine oxidase [flavin-containing] B. The experiment in a line: Competitive inhibition of human recombinant MAOB by Lineweaver-Burk plot analysis.

As to `CN(C)c1ccc(/C=C2\Oc3ccccc3C2=O)cc1`, the 50% inhibitory concentration (IC50) in series [1] worked out at 0.268 µM; in series [2] it was 0.099 µM.
Regarding `O=C1/C(=C/c2ccc(Cl)cc2)Oc2ccccc21`, the IC50 in series [1] was 0.709 µM; in series [2], 0.305 µM.
In the same order, the values of `Cc1ccc2c(c1)O/C(=C\c1ccccc1)C2=O` are 40.2 µM and 3.35 µM.
Regarding `CCOC1CC(c2ccccc2)=NN1c1ccc([N+](=O)[O-])cc1` (stereo not drawn), the IC50 in series [1] was determined as 5.36 µM; in series [2], 0.921 µM.
Take `O=C1NC(=O)/C(=C\c2ccc(Br)cc2)S1`: the results for the 50% inhibitory concentration (IC50) in series [1] and in series [2] were 43.5 µM and 0.228 µM, respectively. The “inhibition (INH)” value in series [3] is given as “Active”.
Consider `CN(C)c1ccc(/C=C2\Oc3cc(O)ccc3C2=O)cc1`, for which, in series [1], the IC50 worked out at 0.979 µM.
For the compound `COc1ccc(NC(=O)N2CCc3ccccc32)cc1`, the half-inhibitory concentration (IC50) was above 100 µM in series [1] and 2.62 µM in series [2].
With `Cc1[nH]n(-c2ccccc2)c(=O)c1/C=N/NC(=O)c1cccnc1`, the values for the IC50 in series [1] and in series [2] were above 100 µM and 13.3 µM, respectively.
As to `O=C1/C(=C/c2ccccc2O)Oc2cc(O)ccc21`, the half-maximal inhibitory concentration (IC50) in series [1] is 17.7 µM; in series [2] it was 11.5 µM.

In general, IC50 refers to the concentration that gives 50% inhibition.
